# From EPA's ToxRefDB 2
# Legend:
# mouse [1] = conditions: Sub-acute repeat dose toxicity, Oral, Gavage/Intubation, dose end: 14 day, group: systemic
# primate [2] = conditions: Sub-acute repeat dose toxicity; Oral; Gavage/Intubation; dose end: 7 day; group: systemic; systemic / pathology gross / stomach / erosion + systemic / pathology gross / stomach / foci + systemic / pathology gross / stomach / lesion…
# primate [3] = conditions: Sub-acute repeat dose toxicity, Oral, Gavage/Intubation, dose end: 14 day, group: systemic
# primate [4] = conditions: Sub-acute repeat dose toxicity; Oral; Gavage/Intubation; dose end: 14 day; group: systemic; systemic / clinical chemistry / albumin / albumin + systemic / hematology / fibrinogen / fibrinogen + systemic / hematology / neutrophils / …
# rat [5] = conditions: Sub-acute repeat dose toxicity, sprague dawley, Oral, Gavage/Intubation, dose end: 14 day, group: systemic
# dog [6] = conditions: Chronic toxicity; beagle; Inhalation; Whole-Body; dose end: 12 month; group: systemic; systemic / in life observation / body weight / body weight gain + systemic / in life observation / clinical signs / dental fluorosis + …
# dog [7] = conditions: Subchronic inhalation toxicity, beagle, Whole-Body, dose end: 13 week, group: systemic, systemic / in life observation / body weight / body weight + systemic / in life observation / body weight / body weight gain + systemic / …
# rat [8] = conditions: Multigenerational reproductive toxicity study, sprague dawley, Inhalation, Whole-Body, dose end: 2 generation
# mouse [9] = conditions: Subchronic inhalation toxicity, cd1, Whole-Body, dose end: 13 week, group: systemic
# rat [10] = conditions: Subchronic inhalation toxicity, fischer, Whole-Body, dose end: 14 day, group: systemic
# rabbit [11] = conditions: Subchronic inhalation toxicity, new zealand white, Whole-Body, dose end: 14 day, group: systemic, systemic / pathology microscopic / brain / necrosis + systemic / pathology microscopic / brain / vacuolization + systemic / pathology …
# mouse [12] = conditions: Carcinogenicity; cd1; Inhalation; Whole-Body; dose end: 18 month; group: systemic; systemic / in life observation / body weight / body weight gain + systemic / in life observation / mortality / mortality + systemic / …
# rat [13] = conditions: Multigenerational reproductive toxicity study, sprague dawley, Inhalation, Whole-Body, dose end: 2 generation; remark: listed apart in the source
# rabbit [14] = conditions: Subchronic inhalation toxicity, new zealand white, Whole-Body, dose end: 13 week, group: systemic
# rat [15] = conditions: Combined chronic toxicity/carcinogenicity, fischer, Inhalation, Whole-Body, dose end: 104 week, group: systemic
# rat [16] = conditions: Subchronic oral toxicity in rodents, fischer, Inhalation, Whole-Body, dose end: 90 day, group: systemic
# rat [17] = conditions: Subchronic oral toxicity in rodents, sprague dawley, Gavage/Intubation, dose end: 91 day, group: systemic
# dog [18] = conditions: Subchronic oral toxicity in nonrodent, beagle, Gavage/Intubation, dose end: 91 day, group: systemic, systemic / organ weight / liver / absolute + systemic / clinical chemistry / alanine aminotransferase (alt/sgpt) / alanine aminotransferase…
# rat [19] = conditions: Prenatal developmental toxicity study, other, Oral, Gavage/Intubation, dose end: 15 GD
# dog [20] = conditions: Subchronic oral toxicity in nonrodent, beagle, Feed, dose end: 14 week, group: systemic
# mouse [21] = conditions: Carcinogenicity, b6c3f1, Oral, Feed, dose end: 103 week, group: systemic
# mouse [22] = conditions: Subchronic oral toxicity in rodents, b6c3f1, Feed, dose end: 13 week, group: systemic
# rat [23] = conditions: Carcinogenicity; fischer; Oral; Feed; dose end: 103 week; group: systemic; systemic / in life observation / body weight / body weight
# rat [24] = conditions: Subchronic oral toxicity in rodents, fischer, Feed, dose end: 13 week, group: systemic, systemic / pathology microscopic / kidney / inflammation
# [25] = systemic / clinical chemistry / [other] / [other] + systemic / clinical chemistry / 5' nucleotidase / 5' nucleotidase + systemic / clinical …
# [26] = systemic / clinical chemistry / cytochrome p450, nos / cytochrome p450, nos + systemic / in life observation / clinical signs / abnormal …
# [27] = systemic / in life observation / food consumption / food consumption + systemic / clinical chemistry / cytochrome p450, nos / cytochrome …
# [28] = systemic / organ weight / liver / absolute + systemic / in life observation / clinical signs / salivation
# [29] = group: offspring, systemic / in life observation / body weight / offspring (pup) weight
# [30] = group: parental, systemic / pathology gross / lung / foci + systemic / pathology microscopic / lung / alveolar macrophages
# [31] = group: parental, systemic / pathology gross / lung / foci + systemic / pathology microscopic / lung / alveolar macrophages + systemic / in life observation…
# [32] = systemic / in life observation / body weight / body weight + systemic / in life observation / body weight / body weight gain + systemic / …
# [33] = systemic / pathology microscopic / kidney / hyperplasia + systemic / pathology microscopic / kidney / basophilia
# [34] = systemic / pathology microscopic / kidney / hyperplasia + systemic / pathology microscopic / kidney / basophilia + systemic / in life …
# [35] = group: parental, systemic / pathology microscopic / lung / alveolar macrophages + systemic / in life observation / body weight / body weight + systemic / in …
# [36] = group: parental, systemic / pathology microscopic / lung / alveolar macrophages + systemic / pathology gross / lung / foci
# [37] = systemic / pathology microscopic / nose / inflammation + systemic / clinical chemistry / flouride / fluoride
# [38] = systemic / in life observation / clinical signs / dental fluorosis
# [39] = systemic / in life observation / clinical signs / dental fluorosis + systemic / clinical chemistry / albumin / albumin + systemic / clinical…
# [40] = systemic / organ weight / brain / absolute + systemic / in life observation / clinical signs / tooth-mottling + systemic / pathology …
# [41] = systemic / pathology microscopic / nose / inflammation
# [42] = systemic / clinical chemistry / [other] / [other] + systemic / clinical chemistry / alanine aminotransferase (alt/sgpt) / alanine …
# [43] = systemic / clinical chemistry / alanine aminotransferase (alt/sgpt) / alanine aminotransferase (alt/sgpt) + systemic / clinical chemistry / …
# [44] = group: developmental, developmental / developmental malformation / bone / fused
# [45] = group: developmental, developmental / developmental malformation / bone / fused + developmental / developmental malformation / bone / incomplete ossification + …
# [46] = group: maternal, systemic / in life observation / body weight / body weight gain + systemic / in life observation / food consumption / food consumption
# [47] = systemic / in life observation / food consumption / food efficiency + systemic / in life observation / body weight / body weight gain + …
# [48] = systemic / in life observation / body weight / body weight
# [49] = systemic / in life observation / body weight / body weight + systemic / in life observation / mortality / mortality
# [50] = systemic / in life observation / body weight / body weight gain + systemic / pathology microscopic / kidney / inflammation + systemic / …
smiles,measurement,setting,value
CC(C)c1cccc(C(C)C)c1NC(=O)[N-]S(=O)(=O)c1cc(C(C)(C)O)co1.[Na+],LOAEL,mouse [1]; [25],> 300 mg/kg/day
same,NEL,mouse [1]; [25],75 mg/kg/day
same,NOAEL,mouse [1]; [25],≥ 300 mg/kg/day
same,LEL,mouse [1]; systemic / in life observation / body weight / body weight gain + systemic / organ weight / liver / absolute,150 mg/kg/day
same,LEL,primate [2],300 mg/kg/day
same,LOAEL,primate [2],> 300 mg/kg/day
same,NEL,primate [2],< 300 mg/kg/day
same,NOAEL,primate [2],≥ 300 mg/kg/day
same,LEL,primate [3]; [26],300 mg/kg/day
same,NEL,primate [3]; [26],100 mg/kg/day
same,LOAEL,primate [3]; [27],> 500 mg/kg/day
same,NOAEL,primate [3]; [27],≥ 500 mg/kg/day
same,LEL,primate [4],100 mg/kg/day
same,LOAEL,primate [4],> 100 mg/kg/day
same,NEL,primate [4],< 100 mg/kg/day
same,NOAEL,primate [4],≥ 100 mg/kg/day
same,NEL,rat [5]; systemic / organ weight / liver / absolute,20 mg/kg/day
same,LEL,rat [5]; [28],100 mg/kg/day
same,LOAEL,rat [5]; [28],> 300 mg/kg/day
same,NOAEL,rat [5]; [28],≥ 300 mg/kg/day
O=S(=O)(F)F [Sulfuryl fluoride],LEL,dog [6],80 ppm
same,LOAEL,dog [6],80 ppm
same,NEL,dog [6],20 ppm
same,NOAEL,dog [6],20 ppm
same,LEL,dog [7],200 ppm
same,LOAEL,dog [7],200 ppm
same,NEL,dog [7],100 ppm
same,NOAEL,dog [7],100 ppm
same,LEL,rat [8]; [29],108 mg/kg/day
same,LOAEL,rat [8]; [29],108 mg/kg/day
same,NEL,rat [8]; [29],14 mg/kg/day
same,NOAEL,rat [8]; [29],14 mg/kg/day
same,LEL,rat [8]; [30],14 mg/kg/day
same,LOAEL,rat [8]; [30],14 mg/kg/day
same,NEL,rat [8]; [31],3.6 mg/kg/day
same,NOAEL,rat [8]; [31],3.6 mg/kg/day
same,LEL,mouse [9]; systemic / clinical chemistry / flouride / fluoride,30 ppm
same,LOAEL,mouse [9]; [32],100 ppm
same,NEL,mouse [9]; [32],10 ppm
same,NOAEL,mouse [9]; [32],30 ppm
same,LEL,rat [10]; [33],249 mg/kg/day
same,LOAEL,rat [10]; [33],249 mg/kg/day
same,NEL,rat [10]; [34],83 mg/kg/day
same,NOAEL,rat [10]; [34],83 mg/kg/day
same,LEL,rabbit [11],90 mg/kg/day
same,LOAEL,rabbit [11],90 mg/kg/day
same,NEL,rabbit [11],30 mg/kg/day
same,NOAEL,rabbit [11],30 mg/kg/day
same,LEL,mouse [12],79.3 mg/kg/day
same,LOAEL,mouse [12],79.3 mg/kg/day
same,NEL,mouse [12],19.8 mg/kg/day
same,NOAEL,mouse [12],19.8 mg/kg/day
same,LEL,rat [13]; [29],108 mg/kg/day
same,LOAEL,rat [13]; [29],108 mg/kg/day
same,NEL,rat [13]; [29],14 mg/kg/day
same,NOAEL,rat [13]; [29],14 mg/kg/day
same,NEL,rat [13]; [35],3.6 mg/kg/day
same,NOAEL,rat [13]; [35],3.6 mg/kg/day
same,LEL,rat [13]; [36],14 mg/kg/day
same,LOAEL,rat [13]; [36],14 mg/kg/day
same,LOAEL,rabbit [14]; [32],100 ppm
same,NOAEL,rabbit [14]; [32],29.8 ppm
same,LEL,rabbit [14]; [37],29.8 ppm
same,NEL,rabbit [14]; [37],< 29.8 ppm
same,LEL,rat [15]; [38],20 ppm
same,LOAEL,rat [15]; [38],20 ppm
same,NEL,rat [15]; [39],5 ppm
same,NOAEL,rat [15]; [39],5 ppm
same,LOAEL,rat [16]; [40],5 mg/kg/day
same,NOAEL,rat [16]; [40],1.49 mg/kg/day
same,LEL,rat [16]; [41],1.49 mg/kg/day
same,NEL,rat [16]; [41],< 1.49 mg/kg/day
CC(=O)NCCN1CCc2cc(NC(=O)c3ccccc3-c3ccc(C(F)(F)F)cc3)ccc2C1,LOAEL,rat [17]; [42],> 50 mg/kg/day
same,NOAEL,rat [17]; [42],≥ 50 mg/kg/day
same,LEL,rat [17]; [43],1 mg/kg/day
same,NEL,rat [17]; [43],< 1 mg/kg/day
same,LEL,dog [18],1 mg/kg/day
same,LOAEL,dog [18],> 5 mg/kg/day
same,NEL,dog [18],< 1 mg/kg/day
same,NOAEL,dog [18],≥ 5 mg/kg/day
CCNc1nc(N)nc(Cl)n1 [Deisopropylatrazine],LEL,rat [19]; [44],25 mg/kg/day
same,LOAEL,rat [19]; [44],25 mg/kg/day
same,NEL,rat [19]; [45],5 mg/kg/day
same,NOAEL,rat [19]; [45],5 mg/kg/day
same,LEL,rat [19]; [46],25 mg/kg/day
same,LOAEL,rat [19]; [46],25 mg/kg/day
same,NEL,rat [19]; [46],5 mg/kg/day
same,NOAEL,rat [19]; [46],5 mg/kg/day
same,LOAEL,dog [20]; systemic / in life observation / food consumption / food efficiency,18 mg/kg/day
same,LEL,dog [20]; [47],18 mg/kg/day
same,NEL,dog [20]; [47],3.8 mg/kg/day
same,NOAEL,dog [20]; [47],3.8 mg/kg/day
CC(C)[C@@H]1CC[C@@H](C)C[C@H]1O (racemic) [dl-Menthol],LEL,mouse [21]; [48],300 mg/kg/day
same,NEL,mouse [21]; [48],< 300 mg/kg/day
same,LOAEL,mouse [21]; [49],> 600 mg/kg/day
same,NOAEL,mouse [21]; [49],≥ 600 mg/kg/day
same,LOAEL,mouse [22]; [50],> 2250 mg/kg/day
same,NEL,mouse [22]; [50],562 mg/kg/day
same,NOAEL,mouse [22]; [50],≥ 2250 mg/kg/day
same,LEL,mouse [22]; systemic / pathology microscopic / kidney / inflammation + systemic / pathology microscopic / lymph node / hyperplasia,1120 mg/kg/day
same,LEL,rat [23],375 mg/kg/day
same,LOAEL,rat [23],> 18700 mg/kg/day
same,NEL,rat [23],< 375 mg/kg/day
same,NOAEL,rat [23],≥ 18700 mg/kg/day
same,LEL,rat [24],750 mg/kg/day
same,LOAEL,rat [24],> 750 mg/kg/day
same,NEL,rat [24],375 mg/kg/day
same,NOAEL,rat [24],≥ 750 mg/kg/day
